Patent publication US20240217977A1, “DIAZEPANONE-FUSED PYRIMIDINE COMPOUNDS, COMPOSITIONS AND MEDICINAL APPLICATIONS THEREOF” (Blueprint Medicines Corporation, priority 2021, published 2024)

Key:
Type in all cases: cell-based
A431 cells = assay: Cellular proliferation (Alamar Blue) assay, A431 cells; settings: Homo sapiens, A-431, 72 hr incubation
Procedure: (§1) Example 2: Cellular Proliferation (Alamar Blue) Assays
(§2) • 1. EGFR(D770_N771insSVD) expressing Ba/F3 stable cell line • 2. EGFR (A767_dupASV) expressing Ba/F3 stable cell line • 3. A431 cells • 4. EGFR (H773insNPH) expressing Ba/F3 stable cell line • 5. HER2 (A775_G775insYVMA) expressing Ba/F3 stable cell line
(§3) • 1. Seed cells at 5000 for A431 and 15,000 cells for Ba/F3 in 100 μL/well in complete media (for A431: DMEM with 10% FBS and for Ba/F3 cells: RPMI with 10% FBS) in • 96-well tissue culture plate. Leave outer wells without cells for background measurements. Incubate at 37 degree Celsius in 5% C02 humidified incubator for 16-18 hours. • 2. Add 0.025 ml of 5× concentration compound dilution or DMSO control. Final compound concentration range is 10-0.0005 μM prepared in 3-fold serial dilutions. Incubate for 72 hr at 37 degree Celsius in 5% CO2 humidified incubator. • 3. Add 0.0125 ml Alamar Blue™ reagent to each well with multi-channel pipette and tap gently on each side of the plate to mix. Incubate for 3 hours at 37 degree Celsius in 5% CO2 humidified incubator. • 4. Read plates on fluorescence reader (Tecan Spark Control, Device: Spark, Serial #: 1801006040) at 540 nm excitation, 590 nm emission wavelength. • 5. Data analysis was performed using XLfit 5.5.0.5.

[1] = target: EGFR (A767_dupASV) expressing Ba/F3 stable cell line (Homo sapiens, UniProt P00533, DUP767-769, cells depend on it); assay: Cellular proliferation (Alamar Blue) assay, EGFR (A767_dupASV) Ba/F3; settings: 72 hr incubation, read-out: A767 IC50
Procedure: as §1, §2, §3

[2] = target: EGFR(D770_N771insSVD) expressing Ba/F3 stable cell line (Homo sapiens, UniProt P00533, DUP768-770, cells depend on it); assay: Cellular proliferation (Alamar Blue) assay, EGFR(D770_N771insSVD) Ba/F3; settings: 72 hr incubation, read-out: D770 IC50
Procedure: as §1, §2, §3

[3] = target: EGFR (H773insNPH) expressing Ba/F3 stable cell line (Homo sapiens, UniProt P00533, DUP771-773, cells depend on it); assay: Cellular proliferation (Alamar Blue) assay, EGFR (H773insNPH) Ba/F3; settings: 72 hr incubation, read-out: NPH IC50
Procedure: as §1, §2, §3

[4] = target: HER2 (A775_G775insYVMA) expressing Ba/F3 stable cell line (Homo sapiens, UniProt P04626, DUP772-775, cells depend on it); assay: Cellular proliferation (Alamar Blue) assay, HER2 (A775_G775insYVMA) Ba/F3; settings: 72 hr incubation, read-out: YVMA IC50
Procedure: as §1, §2, §3

Chain of EGFR (A767_dupASV) expressing Ba/F3 stable cell line (P00533 with tags, fused parts or gaps DUP767-769): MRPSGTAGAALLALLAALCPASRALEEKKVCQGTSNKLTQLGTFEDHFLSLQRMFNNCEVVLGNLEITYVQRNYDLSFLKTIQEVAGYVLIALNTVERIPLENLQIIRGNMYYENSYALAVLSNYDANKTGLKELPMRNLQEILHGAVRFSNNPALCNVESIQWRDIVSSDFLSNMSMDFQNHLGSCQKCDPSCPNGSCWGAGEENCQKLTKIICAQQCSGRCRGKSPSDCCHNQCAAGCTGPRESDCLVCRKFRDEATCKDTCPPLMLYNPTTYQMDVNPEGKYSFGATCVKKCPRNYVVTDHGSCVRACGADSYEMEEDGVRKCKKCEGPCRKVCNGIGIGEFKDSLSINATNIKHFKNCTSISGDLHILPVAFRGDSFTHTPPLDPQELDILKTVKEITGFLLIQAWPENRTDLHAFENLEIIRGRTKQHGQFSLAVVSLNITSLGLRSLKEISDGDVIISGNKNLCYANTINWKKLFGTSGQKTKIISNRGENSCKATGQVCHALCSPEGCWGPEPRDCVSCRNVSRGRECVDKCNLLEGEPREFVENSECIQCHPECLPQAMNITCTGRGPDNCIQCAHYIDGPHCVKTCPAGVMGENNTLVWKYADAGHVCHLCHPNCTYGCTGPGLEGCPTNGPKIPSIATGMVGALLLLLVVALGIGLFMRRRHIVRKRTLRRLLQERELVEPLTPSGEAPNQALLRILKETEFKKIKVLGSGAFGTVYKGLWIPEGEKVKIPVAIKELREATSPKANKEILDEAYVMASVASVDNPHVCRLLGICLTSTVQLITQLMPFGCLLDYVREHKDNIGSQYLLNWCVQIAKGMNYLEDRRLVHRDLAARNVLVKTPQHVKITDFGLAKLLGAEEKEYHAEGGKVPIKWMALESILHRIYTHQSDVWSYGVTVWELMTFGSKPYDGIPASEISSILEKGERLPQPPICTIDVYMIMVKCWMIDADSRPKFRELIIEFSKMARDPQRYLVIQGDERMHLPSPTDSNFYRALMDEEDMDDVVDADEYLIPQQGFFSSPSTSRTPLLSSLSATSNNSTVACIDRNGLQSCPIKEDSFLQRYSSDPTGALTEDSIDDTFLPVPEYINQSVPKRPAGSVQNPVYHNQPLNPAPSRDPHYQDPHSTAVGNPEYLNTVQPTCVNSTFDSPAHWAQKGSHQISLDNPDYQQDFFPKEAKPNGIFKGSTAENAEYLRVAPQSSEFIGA
Chain of EGFR (H773insNPH) expressing Ba/F3 stable cell line (P00533 with tags, fused parts or gaps DUP771-773): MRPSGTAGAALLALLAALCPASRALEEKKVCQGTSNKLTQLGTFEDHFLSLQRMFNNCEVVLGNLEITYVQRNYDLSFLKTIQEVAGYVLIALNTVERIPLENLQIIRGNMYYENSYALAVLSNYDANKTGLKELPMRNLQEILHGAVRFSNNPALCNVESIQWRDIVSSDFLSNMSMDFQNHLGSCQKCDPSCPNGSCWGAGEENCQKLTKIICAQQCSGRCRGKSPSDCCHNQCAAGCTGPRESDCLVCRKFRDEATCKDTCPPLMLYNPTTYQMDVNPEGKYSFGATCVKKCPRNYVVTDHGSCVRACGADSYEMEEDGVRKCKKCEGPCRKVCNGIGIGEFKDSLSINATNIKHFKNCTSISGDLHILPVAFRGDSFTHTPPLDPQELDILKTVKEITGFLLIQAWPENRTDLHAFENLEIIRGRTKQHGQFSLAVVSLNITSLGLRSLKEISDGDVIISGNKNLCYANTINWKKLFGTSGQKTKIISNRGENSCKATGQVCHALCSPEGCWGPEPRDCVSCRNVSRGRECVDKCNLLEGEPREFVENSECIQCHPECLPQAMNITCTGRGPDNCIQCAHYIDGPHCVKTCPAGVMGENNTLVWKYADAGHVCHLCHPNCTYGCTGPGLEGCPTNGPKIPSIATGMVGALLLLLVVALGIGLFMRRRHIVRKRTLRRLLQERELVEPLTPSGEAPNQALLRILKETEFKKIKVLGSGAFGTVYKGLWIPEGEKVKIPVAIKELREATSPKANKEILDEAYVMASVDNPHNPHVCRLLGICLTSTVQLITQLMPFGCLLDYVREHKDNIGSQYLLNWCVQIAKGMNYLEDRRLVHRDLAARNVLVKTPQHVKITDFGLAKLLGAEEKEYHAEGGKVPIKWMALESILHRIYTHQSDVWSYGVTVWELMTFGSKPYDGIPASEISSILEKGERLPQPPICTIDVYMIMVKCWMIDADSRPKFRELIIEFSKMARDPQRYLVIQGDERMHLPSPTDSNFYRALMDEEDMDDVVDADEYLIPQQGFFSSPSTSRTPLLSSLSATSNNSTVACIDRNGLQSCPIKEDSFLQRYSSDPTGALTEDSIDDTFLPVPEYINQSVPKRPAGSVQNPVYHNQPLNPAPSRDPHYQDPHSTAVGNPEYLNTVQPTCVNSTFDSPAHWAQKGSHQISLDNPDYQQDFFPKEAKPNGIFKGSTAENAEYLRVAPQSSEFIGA
Chain of EGFR(D770_N771insSVD) expressing Ba/F3 stable cell line (P00533 with tags, fused parts or gaps DUP768-770): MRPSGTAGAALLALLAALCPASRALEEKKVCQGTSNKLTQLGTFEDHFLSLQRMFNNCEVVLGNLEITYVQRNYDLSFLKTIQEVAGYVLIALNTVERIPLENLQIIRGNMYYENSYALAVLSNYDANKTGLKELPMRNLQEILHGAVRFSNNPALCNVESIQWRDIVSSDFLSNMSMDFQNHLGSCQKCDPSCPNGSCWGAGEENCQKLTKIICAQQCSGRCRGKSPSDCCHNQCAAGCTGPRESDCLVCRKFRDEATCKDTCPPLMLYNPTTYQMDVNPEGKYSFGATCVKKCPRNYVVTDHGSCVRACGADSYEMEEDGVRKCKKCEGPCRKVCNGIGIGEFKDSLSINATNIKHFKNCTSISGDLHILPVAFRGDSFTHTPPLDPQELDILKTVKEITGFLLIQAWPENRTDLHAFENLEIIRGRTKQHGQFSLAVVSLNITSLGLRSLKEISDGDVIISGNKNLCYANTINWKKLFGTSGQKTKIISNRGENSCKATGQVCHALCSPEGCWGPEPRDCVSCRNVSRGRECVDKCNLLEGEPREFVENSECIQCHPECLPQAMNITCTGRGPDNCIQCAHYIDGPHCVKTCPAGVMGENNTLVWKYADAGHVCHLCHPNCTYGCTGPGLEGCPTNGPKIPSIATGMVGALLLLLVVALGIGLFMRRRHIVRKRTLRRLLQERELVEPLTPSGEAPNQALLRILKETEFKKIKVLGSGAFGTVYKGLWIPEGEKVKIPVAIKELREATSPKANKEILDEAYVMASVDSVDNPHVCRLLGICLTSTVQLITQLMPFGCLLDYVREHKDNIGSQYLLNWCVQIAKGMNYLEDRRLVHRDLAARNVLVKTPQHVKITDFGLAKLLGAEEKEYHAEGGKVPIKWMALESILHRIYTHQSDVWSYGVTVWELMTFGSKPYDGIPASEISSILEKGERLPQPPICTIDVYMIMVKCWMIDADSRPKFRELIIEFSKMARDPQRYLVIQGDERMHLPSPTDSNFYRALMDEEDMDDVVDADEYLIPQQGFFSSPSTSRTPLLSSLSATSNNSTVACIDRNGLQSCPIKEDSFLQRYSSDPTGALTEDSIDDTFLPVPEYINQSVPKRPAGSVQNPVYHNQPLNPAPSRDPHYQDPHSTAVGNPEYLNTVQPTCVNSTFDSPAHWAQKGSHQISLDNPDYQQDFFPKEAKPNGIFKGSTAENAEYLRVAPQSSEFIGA
Chain of HER2 (A775_G775insYVMA) expressing Ba/F3 stable cell line (P04626 with tags, fused parts or gaps DUP772-775): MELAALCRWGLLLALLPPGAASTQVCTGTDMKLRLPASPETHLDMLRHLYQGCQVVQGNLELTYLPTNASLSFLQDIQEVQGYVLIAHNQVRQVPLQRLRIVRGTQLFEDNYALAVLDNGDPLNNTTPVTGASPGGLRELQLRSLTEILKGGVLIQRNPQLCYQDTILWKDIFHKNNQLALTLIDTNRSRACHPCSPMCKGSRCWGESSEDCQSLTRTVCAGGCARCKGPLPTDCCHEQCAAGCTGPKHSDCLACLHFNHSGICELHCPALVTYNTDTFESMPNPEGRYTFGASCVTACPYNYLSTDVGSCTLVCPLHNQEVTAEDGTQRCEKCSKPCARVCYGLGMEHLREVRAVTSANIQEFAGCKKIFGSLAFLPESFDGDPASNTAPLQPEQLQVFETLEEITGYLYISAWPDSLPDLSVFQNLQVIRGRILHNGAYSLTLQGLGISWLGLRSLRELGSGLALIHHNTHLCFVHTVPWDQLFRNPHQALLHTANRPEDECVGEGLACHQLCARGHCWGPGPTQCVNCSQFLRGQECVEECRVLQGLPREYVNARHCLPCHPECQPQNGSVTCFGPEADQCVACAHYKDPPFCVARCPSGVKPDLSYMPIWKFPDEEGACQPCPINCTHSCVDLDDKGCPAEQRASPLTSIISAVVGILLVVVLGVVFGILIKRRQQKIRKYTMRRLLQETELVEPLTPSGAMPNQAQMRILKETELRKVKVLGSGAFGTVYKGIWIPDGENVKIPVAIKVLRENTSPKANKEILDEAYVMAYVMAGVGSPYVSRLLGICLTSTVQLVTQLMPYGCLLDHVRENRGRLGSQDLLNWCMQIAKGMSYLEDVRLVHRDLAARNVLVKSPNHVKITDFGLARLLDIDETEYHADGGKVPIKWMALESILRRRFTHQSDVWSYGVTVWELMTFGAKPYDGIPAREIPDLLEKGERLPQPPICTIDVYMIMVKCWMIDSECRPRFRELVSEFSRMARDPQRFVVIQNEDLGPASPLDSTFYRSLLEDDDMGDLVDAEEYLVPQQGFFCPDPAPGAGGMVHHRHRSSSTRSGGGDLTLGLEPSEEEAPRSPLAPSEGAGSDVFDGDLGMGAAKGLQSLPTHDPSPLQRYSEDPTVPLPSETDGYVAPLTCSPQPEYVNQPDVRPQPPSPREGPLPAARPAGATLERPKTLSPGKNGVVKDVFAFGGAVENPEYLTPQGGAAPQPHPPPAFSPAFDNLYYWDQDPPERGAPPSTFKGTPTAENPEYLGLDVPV

| IC50 (A431 cells) [nM] | GI50 [1] [nM] | GI50 [2] [nM] | GI50 [3] [nM] | GI50 [4] [nM] | SMILES |
| --- | --- | --- | --- | --- | --- |
| 102 | 32 | 41 | 27 | 29 | C=CC(=O)Nc1cccc(N2C(=O)N(c3ccccc3)CCc3cnc(Nc4ccc(N5CCN(C)CC5)c(C)c4)nc32)c1 [Compound 41, N-(3-(2-((3-methyl-4-(4-methylpiperazin-1-yl)phenyl)amino)-8-oxo-7-phenyl-5,6,7,8-tetrahydro-9H-pyrimido[4,5-d][1,3]diazepin-9-yl)phenyl)acrylamide] |
| > 10000 | 117 | 122 | 138 | 1060 | C=CC(=O)Nc1cccc(N2C(=O)N(c3ccccc3)CCc3cnc(Nc4cn(C)nc4F)nc32)c1 [Compound 35, N-(3-(2-((3-fluoro-1-methyl-1H-pyrazol-4-yl)amino)-8-oxo-7-phenyl-5,6,7,8-tetrahydro-9H-pyrimido[4,5-d][1,3]diazepin-9-yl)phenyl)acrylamide] |
| > 10000 | 146 | 239 | 193 | 1360 | C=CC(=O)Nc1cccc(N2C(=O)N(c3ccccc3)CCc3cnc(Nc4cccnc4F)nc32)c1 [Compound 43, N-(3-{12-[(2-fluoropyridin-3-yl)amino]-8-oxo-7-phenyl-5H,6H,7H,8H,9H-pyrimido[4,5-d][1,3]diazepin-9-yl}phenyl)prop-2-enamide] |
| 7 | 39 | 92 | 88 | 131 | C=CC(=O)Nc1cccc(N2C(=O)N(c3ccccc3)CCc3cnc(Nc4ccc(N5CCN(C)CC5)cc4OC)nc32)c1 [Compound 39, N-(3-(2-((2-methoxy-4-(4-methylpiperazin-1-yl)phenyl)amino)-8-oxo-7-phenyl-5,6,7,8-tetrahydro-9H-pyrimido[4,5-d][1,3]diazepin-9-yl)phenyl)acrylamide] |
| 7 | 38 | 89 | 100 | 138 | C=CC(=O)Nc1cccc(N2C(=O)N(c3ccccc3)CCc3cnc(Nc4ccc(N5CCN(C)CC5)cc4)nc32)c1 [Compound 37, N-(3-(2-((4-(4-methylpiperazin-1-yl)phenyl)amino)-8-oxo-7-phenyl-5,6,7,8-tetrahydro-9H-pyrimido[4,5-d][1,3]diazepin-9-yl)phenyl)acrylamide] |

Continued, compound first:

| SMILES | IC50 (A431 cells) [nM] | GI50 [1] [nM] | GI50 [2] [nM] | GI50 [3] [nM] | GI50 [4] [nM] |
| --- | --- | --- | --- | --- | --- |
| C=CC(=O)Nc1cccc(N2C(=O)N(Cc3ccccc3)CCc3cnc(Nc4ccc(F)nc4)nc32)c1 [Compound 26, N-(3-(7-benzyl-2-((6-fluoropyridin-3-yl)amino)-8-oxo-5,6,7,8-tetrahydro-9H-pyrimido[4,5-d][1,3]diazepin-9-yl)phenyl)acrylamide] | 134 | 67 | 35 | 90 | 33 |
| C=CC(=O)Nc1cccc(N2C(=O)N(c3ccccc3)CCc3cnc(Nc4cn(C)nc4Cl)nc32)c1 [Compound 29, N-(3-{2-[(3-chloro-1-methyl-1H-pyrazol-4-yl)amino]-8-oxo-7-phenyl-5H,6H,7H,8H,9H-pyrimido[4,5-d][1,3]diazepin-9-yl}phenyl)prop-2-enamide] | 16 | 36 | 45 | 25 | 67 |
| Cn1cc(Nc2ncc3c(n2)N(c2cccc(NC(=O)/C=C/CN4CCOCC4)c2)C(=O)N(Cc2ccccc2)CC3)c(Cl)n1 [Compound 10, (E)-N-(3-(7-benzyl-2-((3-chloro-1-methyl-1H-pyrazol-4-yl)amino)-8-oxo-5,6,7,8-tetrahydro-9H-pyrimido[4,5-d][1,3]diazepin-9-yl)phenyl)-4-morpholinobut-2-enamide] | 8 | 43 | 47 | 94 | 20 |
| C=CC(=O)Nc1cccc(N2C(=O)N(Cc3ccccc3)CCc3cnc(Nc4ccc(N5CCOCC5)nc4)nc32)c1 [Compound 19, N-(3-(7-benzyl-2-((6-morpholinopyridin-3-yl)amino)-8-oxo-5,6,7,8-tetrahydro-9H-pyrimido[4,5-d][1,3]diazepin-9-yl)phenyl)acrylamide] | > 10000 | 10 | 14 | 25 | 24 |
| C=CC(=O)Nc1cccc(N2C(=O)N(Cc3ccccc3)CCc3cnc(Nc4ccc(F)cc4OC)nc32)c1 [Compound 21, N-(3-(7-benzyl-2-((4-fluoro-2-methoxyphenyl)amino)-8-oxo-5,6,7,8-tetrahydro-9H-pyrimido[4,5-d][1,3]diazepin-9-yl)phenyl)acrylamide] | 40 | 97 | 103 | 102 | 44 |
| C=CC(=O)Nc1cccc(N2C(=O)N(Cc3ccccc3)CCc3cnc(Nc4ccc(N5CCN(C)CC5)c(C)c4)nc32)c1 [Compound 22, N-(3-(7-benzyl-2-((3-methyl-4-(4-methylpiperazin-1-yl)phenyl)amino)-8-oxo-5,6,7,8-tetrahydro-9H-pyrimido[4,5-d][1,3]diazepin-9-yl)phenyl)acrylamide] | 25 | 33 | 31 | 41 | 9 |
| C=CC(=O)Nc1cccc(N2C(=O)N(Cc3ccccc3)CCc3cnc(Nc4ccc(F)c(C)c4)nc32)c1 [Compound 9, N-(3-(7-benzyl-2-((4-fluoro-3-methylphenyl)amino)-8-oxo-5,6,7,8-tetrahydro-9H-pyrimido[4,5-d][1,3]diazepin-9-yl)phenyl)acrylamide] | 35 | 46 | 45 | 95 | 28 |
| C=CC(=O)Nc1cccc(N2C(=O)N(Cc3ccccc3)CCc3cnc(Nc4cn(C)nc4F)nc32)c1 [Compound 11, N-(3-(7-benzyl-2-((3-fluoro-1-methyl-1H-pyrazol-4-yl)amino)-8-oxo-5,6,7,8-tetrahydro-9H-pyrimido[4,5-d][1,3]diazepin-9-yl)phenyl)acrylamide] | 5 | 11 | 10 | 31 | 7 |
| CN(C)C/C=C/C(=O)Nc1cccc(N2C(=O)N(Cc3ccccc3)CCc3cnc(Nc4cn(C)nc4Cl)nc32)c1 [Compound 1, (E)-N-(3-(7-benzyl-2-((3-chloro-1-methyl-1H-pyrazol-4-yl)amino)-8-oxo-5,6,7,8-tetrahydro-9H-pyrimido[4,5-d][1,3]diazepin-9-yl)phenyl)-4-(dimethylamino)but-2-enamide] | 132 | 54 | 105 | 86 | 31 |
| Cn1cc(Nc2ncc3c(n2)N(c2cccc(NC(=O)/C=C/CF)c2)C(=O)N(c2ccccc2)CC3)c(Cl)n1 [Compound 33, (E)-N-(3-(2-((3-chloro-1-methyl-1H-pyrazol-4-yl)amino)-8-oxo-7-phenyl-5,6,7,8-tetrahydro-9H-pyrimido[4,5-d][1,3]diazepin-9-yl)phenyl)-4-fluorobut-2-enamide] | > 10000 | 128 | 239 | 131 | 602 |
